One block for each molecule: values may come before it.
Experiments:
[1] = Active ingredient assay and recovery on storage (Table 2); type: physicochemical
[2] = Active ingredient assay on storage, SCB239-12 (Table 3); type: physicochemical

SMILES: CCCCCCCC(=O)Oc1c(Br)cc(C#N)cc1Br [Bromoxynil, Bromoxynil Octanoate]
- Assay (% w/w) ([1]; 1 month storage, 0° C.): 31.04 % w/w
- Assay (% w/w) ([1]; 1 month storage, 40° C.): 31.46 % w/w
- Assay (% w/w) ([1]; 1 month storage, T/C): 31.27 % w/w
- Assay (% w/w) ([1]; 1 month storage, −10° C.): 31.44 % w/w
- Assay (% w/w) ([1]; 2 month storage, 0° C.): 31.30 % w/w
- Assay (% w/w) ([1]; 2 month storage, 40° C.): 30.78 % w/w
- Assay (% w/w) ([1]; 2 month storage, T/C): 30.99 % w/w
- Assay (% w/w) ([1]; 2 month storage, −10° C.): 31.34 % w/w
- Assay (% w/w) ([1]; 2 wks, 54° C.): 31.02 % w/w
- Assay (% w/w) ([1]; 3 month storage, 0° C.): 32.81 % w/w
- Assay (% w/w) ([1]; 3 month storage, 25° C.): 32.57 % w/w
- Assay (% w/w) ([1]; 3 month storage, 40° C.): 32.17 % w/w
- Assay (% w/w) ([1]; 3 month storage, T/C): 32.54 % w/w
- Assay (% w/w) ([1]; 3 month storage, −10° C.): 33.06 % w/w
- Assay (% w/w) ([1]; 6 month storage, 25° C.): 31.38 % w/w
- Assay (% w/w) ([1]; 9 month storage, 25° C.): 32.11 % w/w
- Assay (% w/w) ([1]; 12 month storage, 25° C.): 31.19 % w/w
- Assay (% w/w) ([1]; F/T Sample): 31.42 % w/w
- Assay (% w/w) ([1]; initial): 31.32 % w/w
- Assay (% w/w) ([2]; 1 month storage, 0° C.): 31.08 % w/w
- Recovery of active ingredient (% of initial assay) ([2]; 1 month storage, 0° C.): 99.56 % w/w
- Assay (% w/w) ([2]; 1 month storage, 40° C.): 30.65 % w/w
- Recovery of active ingredient (% of initial assay) ([2]; 1 month storage, 40° C.): 98.17 % w/w
- Assay (% w/w) ([2]; 1 month storage, T/C): 30.89 % w/w
- Recovery of active ingredient (% of initial assay) ([2]; 1 month storage, T/C): 98.95 % w/w
- Assay (% w/w) ([2]; 2 month storage, 0° C.): 30.30 % w/w
- Recovery of active ingredient (% of initial assay) ([2]; 2 month storage, 0° C.): 97.06 % w/w
- Assay (% w/w) ([2]; 2 month storage, 40° C.): 29.43 % w/w
- Recovery of active ingredient (% of initial assay) ([2]; 2 month storage, 40° C.): 94.28 % w/w
- Assay (% w/w) ([2]; 2 month storage, T/C): 29.88 % w/w
- Recovery of active ingredient (% of initial assay) ([2]; 2 month storage, T/C): 95.73 % w/w
- Assay (% w/w) ([2]; 2 wks, 54° C.): 30.55 % w/w
- Recovery of active ingredient (% of initial assay) ([2]; 2 wks, 54° C.): 97.86 % w/w
- Assay (% w/w) ([2]; 3 month storage, 0° C.): 30.06 % w/w
- Recovery of active ingredient (% of initial assay) ([2]; 3 month storage, 0° C.): 96.31 % w/w
- Assay (% w/w) ([2]; 3 month storage, 25° C.): 30.03 % w/w
- Recovery of active ingredient (% of initial assay) ([2]; 3 month storage, 25° C.): 96.21 % w/w
- Assay (% w/w) ([2]; 3 month storage, 40° C.): 29.37 % w/w
- Recovery of active ingredient (% of initial assay) ([2]; 3 month storage, 40° C.): 94.07 % w/w
- Assay (% w/w) ([2]; 3 month storage, −10° C.): 30.49 % w/w
- Recovery of active ingredient (% of initial assay) ([2]; 3 month storage, −10° C.): 97.68 % w/w
- Assay (% w/w) ([2]; F/T sample): 31.13 % w/w
- Recovery of active ingredient (% of initial assay) ([2]; F/T sample): 99.73 % w/w
- Assay (% w/w) ([2]; Initial): 31.22 % w/w

- Assay (% w/w) ([1]; 1 month storage, 0° C.): 0.41 % w/w
- Assay (% w/w) ([1]; 1 month storage, 40° C.): 0.41 % w/w
- Assay (% w/w) ([1]; 1 month storage, T/C): 0.41 % w/w
- Assay (% w/w) ([1]; 1 month storage, −10° C.): 0.41 % w/w
- Assay (% w/w) ([1]; 2 month storage, 0° C.): 0.41 % w/w
- Assay (% w/w) ([1]; 2 month storage, 40° C.): 0.40 % w/w
- Assay (% w/w) ([1]; 2 month storage, T/C): 0.40 % w/w
- Assay (% w/w) ([1]; 2 month storage, −10° C.): 0.41 % w/w
- Assay (% w/w) ([1]; 2 wks, 54° C.): 0.39 % w/w
- Assay (% w/w) ([1]; 3 month storage, 0° C.): 0.41 % w/w
- Assay (% w/w) ([1]; 3 month storage, 25° C.): 0.41 % w/w
- Assay (% w/w) ([1]; 3 month storage, 40° C.): 0.40 % w/w
- Assay (% w/w) ([1]; 3 month storage, T/C): 0.41 % w/w
- Assay (% w/w) ([1]; 3 month storage, −10° C.): 0.42 % w/w
- Assay (% w/w) ([1]; 6 month storage, 25° C.): 0.39 % w/w
- Assay (% w/w) ([1]; 9 month storage, 25° C.): 0.39 % w/w
- Assay (% w/w) ([1]; 12 month storage, 25° C.): 0.39 % w/w
- Assay (% w/w) ([1]; F/T Sample): 0.41 % w/w
- Assay (% w/w) ([1]; initial): 0.41 % w/w
- Assay (% w/w) ([2]; 1 month storage, 0° C.): 0.35 % w/w
- Recovery of active ingredient (% of initial assay) ([2]; 1 month storage, 0° C.): 100.15 % w/w
- Assay (% w/w) ([2]; 1 month storage, 40° C.): 0.35 % w/w
- Recovery of active ingredient (% of initial assay) ([2]; 1 month storage, 40° C.): 99.58 % w/w
- Assay (% w/w) ([2]; 1 month storage, T/C): 0.35 % w/w
- Recovery of active ingredient (% of initial assay) ([2]; 1 month storage, T/C): 99.83 % w/w
- Assay (% w/w) ([2]; 2 month storage, 0° C.): 0.36 % w/w
- Recovery of active ingredient (% of initial assay) ([2]; 2 month storage, 0° C.): 100.12 % w/w
- Assay (% w/w) ([2]; 2 month storage, 40° C.): 0.35 % w/w
- Recovery of active ingredient (% of initial assay) ([2]; 2 month storage, 40° C.): 100.02 % w/w
- Assay (% w/w) ([2]; 2 month storage, T/C): 0.36 % w/w
- Recovery of active ingredient (% of initial assay) ([2]; 2 month storage, T/C): 101.08 % w/w
- Assay (% w/w) ([2]; 2 wks, 54° C.): 0.35 % w/w
- Recovery of active ingredient (% of initial assay) ([2]; 2 wks, 54° C.): 100.70 % w/w
- Assay (% w/w) ([2]; 3 month storage, 0° C.): 0.35 % w/w
- Recovery of active ingredient (% of initial assay) ([2]; 3 month storage, 0° C.): 100.75 % w/w
- Assay (% w/w) ([2]; 3 month storage, 25° C.): 0.35 % w/w
- Recovery of active ingredient (% of initial assay) ([2]; 3 month storage, 25° C.): 100.17 % w/w
- Assay (% w/w) ([2]; 3 month storage, 40° C.): 0.35 % w/w
- Recovery of active ingredient (% of initial assay) ([2]; 3 month storage, 40° C.): 99.39 % w/w
- Assay (% w/w) ([2]; 3 month storage, −10° C.): 0.35 % w/w
- Recovery of active ingredient (% of initial assay) ([2]; 3 month storage, −10° C.): 99.59 % w/w
- Assay (% w/w) ([2]; F/T sample): 0.36 % w/w
- Recovery of active ingredient (% of initial assay) ([2]; F/T sample): 101.49 % w/w
- Assay (% w/w) ([2]; Initial): 0.35 % w/w
SMILES: CCCCCC(C)OC(=O)COc1ccc(Cl)c2cccnc12 (stereo not drawn) [cloquintocet, Cloquintocet Mexyl]

SMILES: CCCCC(CC)COC(=O)COc1ccc(Cl)cc1C (stereo not drawn) [MCPA, 2-ethylhexyl 2-(4-chloro-2-methylphenoxy) acetate]
- Assay (% w/w) ([1]; 1 month storage, 0° C.): 34.61 % w/w
- Assay (% w/w) ([1]; 1 month storage, 40° C.): 34.69 % w/w
- Assay (% w/w) ([1]; 1 month storage, T/C): 34.68 % w/w
- Assay (% w/w) ([1]; 1 month storage, −10° C.): 34.65 % w/w
- Assay (% w/w) ([1]; 2 month storage, 0° C.): 34.82 % w/w
- Assay (% w/w) ([1]; 2 month storage, 40° C.): 34.90 % w/w
- Assay (% w/w) ([1]; 2 month storage, T/C): 34.94 % w/w
- Assay (% w/w) ([1]; 2 month storage, −10° C.): 34.92 % w/w
- Assay (% w/w) ([1]; 2 wks, 54° C.): 35.05 % w/w
- Assay (% w/w) ([1]; 3 month storage, 0° C.): 35.25 % w/w
- Assay (% w/w) ([1]; 3 month storage, 25° C.): 35.23 % w/w
- Assay (% w/w) ([1]; 3 month storage, 40° C.): 35.28 % w/w
- Assay (% w/w) ([1]; 3 month storage, T/C): 35.30 % w/w
- Assay (% w/w) ([1]; 3 month storage, −10° C.): 35.36 % w/w
- Assay (% w/w) ([1]; 6 month storage, 25° C.): 34.14 % w/w
- Assay (% w/w) ([1]; 9 month storage, 25° C.): 34.73 % w/w
- Assay (% w/w) ([1]; 12 month storage, 25° C.): 34.84 % w/w
- Assay (% w/w) ([1]; F/T Sample): 35.06 % w/w
- Assay (% w/w) ([1]; initial): 35.01 % w/w
- Assay (% w/w) ([2]; 1 month storage, 0° C.): 33.65 % w/w
- Recovery of active ingredient (% of initial assay) ([2]; 1 month storage, 0° C.): 99.88 % w/w
- Assay (% w/w) ([2]; 1 month storage, 40° C.): 33.61 % w/w
- Recovery of active ingredient (% of initial assay) ([2]; 1 month storage, 40° C.): 99.77 % w/w
- Assay (% w/w) ([2]; 1 month storage, T/C): 33.64 % w/w
- Recovery of active ingredient (% of initial assay) ([2]; 1 month storage, T/C): 99.85 % w/w
- Assay (% w/w) ([2]; 2 month storage, 0° C.): 34.07 % w/w
- Recovery of active ingredient (% of initial assay) ([2]; 2 month storage, 0° C.): 101.15 % w/w
- Assay (% w/w) ([2]; 2 month storage, 40° C.): 33.84 % w/w
- Recovery of active ingredient (% of initial assay) ([2]; 2 month storage, 40° C.): 100.47 % w/w
- Assay (% w/w) ([2]; 2 month storage, T/C): 33.97 % w/w
- Recovery of active ingredient (% of initial assay) ([2]; 2 month storage, T/C): 100.84 % w/w
- Assay (% w/w) ([2]; 2 wks, 54° C.): 34.24 % w/w
- Recovery of active ingredient (% of initial assay) ([2]; 2 wks, 54° C.): 101.65 % w/w
- Assay (% w/w) ([2]; 3 month storage, 0° C.): 33.76 % w/w
- Recovery of active ingredient (% of initial assay) ([2]; 3 month storage, 0° C.): 100.21 % w/w
- Assay (% w/w) ([2]; 3 month storage, 25° C.): 33.64 % w/w
- Recovery of active ingredient (% of initial assay) ([2]; 3 month storage, 25° C.): 99.86 % w/w
- Assay (% w/w) ([2]; 3 month storage, 40° C.): 33.61 % w/w
- Recovery of active ingredient (% of initial assay) ([2]; 3 month storage, 40° C.): 99.76 % w/w
- Assay (% w/w) ([2]; 3 month storage, −10° C.): 33.41 % w/w
- Recovery of active ingredient (% of initial assay) ([2]; 3 month storage, −10° C.): 99.20 % w/w
- Assay (% w/w) ([2]; F/T sample): 34.30 % w/w
- Recovery of active ingredient (% of initial assay) ([2]; F/T sample): 101.84 % w/w
- Assay (% w/w) ([2]; Initial): 33.69 % w/w
